# Assay results: PubChem BioAssay AID2060494 (Molecular Pharmacology Branch, DTP, NCI, 2025)
# Tested on: 435261-313-R-J1-PDC complex spheroid viability
# Assay: Anticancer human tumor 435261-313-R-J1-PDC patient-derived colon adenocarcinoma cell line growth inhibition [GQUAD]
# Settings: for IC50: curve of first compound; for viability, T/C: stronger effect = lower value
# Outline: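 Multi-cell-type spheroids of tumor cells with HUVEC and mesenchymal stem cells, treated with drug combinations. Concentrations descend in half-log steps from near clinical Cmax, or from 10 microM where Cmax is unknown; viability read-out.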
# [1] = second compound 0.0316 µM, first compound 0.0316 µM
# [2] = second compound 0.0316 µM, first compound 0.1 µM
# [3] = second compound 0.0316 µM, first compound 0.316 µM
# [4] = second compound 0.0316 µM, first compound 1 µM
# [5] = second compound 0.0316 µM, first compound 3.16 µM
# [6] = second compound 0.0316 µM, first compound 10 µM
# [7] = second compound 0.1 µM, first compound 0.0316 µM
# [8] = second compound 0.1 µM, first compound 0.1 µM
# [9] = second compound 0.1 µM, first compound 0.316 µM
# [10] = second compound 0.1 µM, first compound 1 µM
# [11] = second compound 0.1 µM, first compound 3.16 µM
# [12] = second compound 0.1 µM, first compound 10 µM
# [13] = second compound 0.316 µM, first compound 0.0316 µM
# [14] = second compound 0.316 µM, first compound 0.1 µM
# [15] = second compound 0.316 µM, first compound 0.316 µM
# [16] = second compound 0.316 µM, first compound 1 µM
# [17] = second compound 0.316 µM, first compound 3.16 µM
# [18] = second compound 0.316 µM, first compound 10 µM
# [19] = second compound 1 µM, first compound 0.0316 µM
# [20] = second compound 1 µM, first compound 0.1 µM
# [21] = second compound 1 µM, first compound 0.316 µM
# [22] = second compound 1 µM, first compound 1 µM
# [23] = second compound 1 µM, first compound 3.16 µM
# [24] = second compound 1 µM, first compound 10 µM
# [25] = second compound 3.16 µM, first compound 0.0316 µM
# [26] = second compound 3.16 µM, first compound 0.1 µM
# [27] = second compound 3.16 µM, first compound 0.316 µM
# [28] = second compound 3.16 µM, first compound 1 µM
# [29] = second compound 3.16 µM, first compound 3.16 µM
# [30] = second compound 3.16 µM, first compound 10 µM
# [31] = second compound 10 µM, first compound 0.0316 µM
# [32] = second compound 10 µM, first compound 0.1 µM
# [33] = second compound 10 µM, first compound 0.316 µM
# [34] = second compound 10 µM, first compound 1 µM
# [35] = second compound 10 µM, first compound 3.16 µM
# [36] = second compound 10 µM, first compound 10 µM
# 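Note: spheroids exposed to the agents for seven days before readout.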
# 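Throughout, for viability, T/C: percent of vehicle control viability with DMSO wells as 100%.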
compound,measurement,setting,value
COc1cccc2c1C(=O)c1c(O)c3c(c(O)c1C2=O)CC(O)(C(=O)CO)CC3OC1CC(N)C(O)C(C)O1 (stereo unspecified) + CN(C)c1ccc(Nc2c3ccc(NC(=O)CCN4CCCC4)cc3nc3cc(NC(=O)CCN4CCCC4)ccc23)cc1,IC50,second compound 0.0316 µM,491 nM
same,IC50,second compound 0.1 µM,644 nM
same,IC50,second compound 0.316 µM,582 nM
same,IC50,second compound 1 µM,439 nM
same,IC50,second compound 3.16 µM,152 nM
same,IC50,second compound 10 µM,< 31.6 nM
same,"viability, T/C",[1],83.2%
same,"viability, T/C",[2],71.2%
same,"viability, T/C",[3],65.4%
same,"viability, T/C",[4],26.9%
same,"viability, T/C",[5],2.29%
same,"viability, T/C",[6],5.25%
same,"viability, T/C",[7],73.4%
same,"viability, T/C",[8],87%
same,"viability, T/C",[9],78.7%
same,"viability, T/C",[10],32.1%
same,"viability, T/C",[11],3.52%
same,"viability, T/C",[12],4.61%
same,"viability, T/C",[13],76.3%
same,"viability, T/C",[14],79.1%
same,"viability, T/C",[15],70.5%
same,"viability, T/C",[16],31.5%
same,"viability, T/C",[17],2.47%
same,"viability, T/C",[18],2.91%
same,"viability, T/C",[19],83%
same,"viability, T/C",[20],69.8%
same,"viability, T/C",[21],58.7%
same,"viability, T/C",[22],31.9%
same,"viability, T/C",[23],1.79%
same,"viability, T/C",[24],3.08%
same,"viability, T/C",[25],46.8%
same,"viability, T/C",[26],62.5%
same,"viability, T/C",[27],42%
same,"viability, T/C",[28],16.4%
same,"viability, T/C",[29],1.33%
same,"viability, T/C",[30],3.49%
same,"viability, T/C",[31],37.7%
same,"viability, T/C",[32],28%
same,"viability, T/C",[33],17.7%
same,"viability, T/C",[34],12%
same,"viability, T/C",[35],2.28%
same,"viability, T/C",[36],3.53%
Cc1cccc(N(C)C(=O)C2C(O)CCN2c2nc(C)cc(C(F)(F)F)c2C#N)c1 (stereo unspecified) + CN(C)c1ccc(Nc2c3ccc(NC(=O)CCN4CCCC4)cc3nc3cc(NC(=O)CCN4CCCC4)ccc23)cc1,IC50,second compound 0.0316 µM,> 10000 nM
same,IC50,second compound 0.1 µM,> 10000 nM
same,IC50,second compound 0.316 µM,> 10000 nM
same,IC50,second compound 1 µM,> 10000 nM
same,IC50,second compound 3.16 µM,> 10000 nM
same,IC50,second compound 10 µM,< 31.6 nM
same,"viability, T/C",[1],97.7%
same,"viability, T/C",[2],92.1%
same,"viability, T/C",[3],99.7%
same,"viability, T/C",[4],90.6%
same,"viability, T/C",[5],96.2%
same,"viability, T/C",[6],123%
same,"viability, T/C",[7],84.8%
same,"viability, T/C",[8],92.9%
same,"viability, T/C",[9],81.6%
same,"viability, T/C",[10],74.5%
same,"viability, T/C",[11],99%
same,"viability, T/C",[12],84.8%
same,"viability, T/C",[13],86.9%
same,"viability, T/C",[14],94%
same,"viability, T/C",[15],76.8%
same,"viability, T/C",[16],90.3%
same,"viability, T/C",[17],81.7%
same,"viability, T/C",[18],73.1%
same,"viability, T/C",[19],79.3%
same,"viability, T/C",[20],95.5%
same,"viability, T/C",[21],111%
same,"viability, T/C",[22],93%
same,"viability, T/C",[23],70.7%
same,"viability, T/C",[24],86%
same,"viability, T/C",[25],64.3%
same,"viability, T/C",[26],65.8%
same,"viability, T/C",[27],43.5%
same,"viability, T/C",[28],66.4%
same,"viability, T/C",[29],59.4%
same,"viability, T/C",[30],44.8%
same,"viability, T/C",[31],34.9%
same,"viability, T/C",[32],56.7%
same,"viability, T/C",[33],47.8%
same,"viability, T/C",[34],34%
same,"viability, T/C",[35],37.4%
same,"viability, T/C",[36],20.9%
Nc1ccn(C2OC(CO)C(O)C2(F)F)c(=O)n1 (stereo unspecified) + CN(C)c1ccc(Nc2c3ccc(NC(=O)CCN4CCCC4)cc3nc3cc(NC(=O)CCN4CCCC4)ccc23)cc1,IC50,second compound 0.0316 µM,> 10000 nM
same,IC50,second compound 0.1 µM,> 10000 nM
same,IC50,second compound 0.316 µM,> 10000 nM
same,IC50,second compound 1 µM,> 10000 nM
same,IC50,second compound 3.16 µM,2840 nM
same,IC50,second compound 10 µM,< 31.6 nM
same,"viability, T/C",[1],90.2%
same,"viability, T/C",[2],78.8%
same,"viability, T/C",[3],90%
same,"viability, T/C",[4],83%
same,"viability, T/C",[5],77.2%
same,"viability, T/C",[6],60.9%
same,"viability, T/C",[7],85.3%
same,"viability, T/C",[8],103%
same,"viability, T/C",[9],72.5%
same,"viability, T/C",[10],84.5%
same,"viability, T/C",[11],70.4%
same,"viability, T/C",[12],68.5%
same,"viability, T/C",[13],98.4%
same,"viability, T/C",[14],94.8%
same,"viability, T/C",[15],70.4%
same,"viability, T/C",[16],68.3%
same,"viability, T/C",[17],76.9%
same,"viability, T/C",[18],67.8%
same,"viability, T/C",[19],79.9%
same,"viability, T/C",[20],78.2%
same,"viability, T/C",[21],74.5%
same,"viability, T/C",[22],68.1%
same,"viability, T/C",[23],78.8%
same,"viability, T/C",[24],66.5%
same,"viability, T/C",[25],68.7%
same,"viability, T/C",[26],58%
same,"viability, T/C",[27],53.2%
same,"viability, T/C",[28],57.5%
same,"viability, T/C",[29],54%
same,"viability, T/C",[30],38.7%
same,"viability, T/C",[31],30.9%
same,"viability, T/C",[32],26.6%
same,"viability, T/C",[33],26.2%
same,"viability, T/C",[34],32.9%
same,"viability, T/C",[35],26.5%
same,"viability, T/C",[36],24.9%
